Experimental data reported in PMC3314626, “Crystal Structures of the Tetratricopeptide Repeat Domains of Kinesin Light Chains: Insight into Cargo Recognition Mechanisms” (PLoS ONE, 2012).
“Also recorded” adds a separate entry of the source. Like-named read-outs stand apart in the source and are kept apart here.

Columns and labels:
[1] = molecular target: T1, KLC2-S328N (Homo sapiens, UniProt Q9H0B6, S328N); assay: ITC binding of JIP1 peptide to KLC2-S328N mutant; conditions: 25°C
T1 construct: KLC2-TPR (residues 217–480, genbank: NP_073733); made in house; host or cells: E. coli BL21(DE3)-CodonPlus-RIL
Protocol: (§1) DNAs encoding the TPR domains of KLC1-TPR (residues 228–495, genbank: NP_005543) and KLC2-TPR (residues 217–480, genbank: NP_073733) were amplified by polymerase chain reaction (PCR) using cDNAs obtained from the Mammalian Gene Collection as templates. The PCR products were cloned into a modified version of the expression plasmid pET28-LIC (genbank: EF442785) using an Infusion cloning kit (ClonTech). The KLC1-N343S and KLC2-S328N mutants were prepared with a QuickChange® kit (Stratagene).
(§2) Binding affinities of the JIP1 peptide (Ac-EYTCPTEDIYLE-COOH), ALC1peptide (Ac-EMDWDDSALT-COOH) (synthesized by Tufts University Core Facility), and ALC1 protein to the KLC1-TPR, KLC2-TPR and their mutants were measured by isothermal titration calorimetry (ITC) (VP-ITC microcalorimeter, MicroCal Inc.). Measurements were performed at 25°C by injecting 5–10 µl of peptide solution (1–3 mM) into a sample chamber containing 60–130 µM KLC1-TPR or KLC2-TPR in 20 mM Bis-Tris, pH 6.5, 500 mM sodium chloride, and 0.5 mM TCEP. For the protein-protein interaction, the sample chamber contained 15 µM of KLC1-TPR and 160 µM of the ALC1 protein in a buffer containing 30 mM HEPES 7.4, 200 mM NaCl, 0.5 mM TCEP. The syringe injections containing peptides and proteins were dissolved and dialyzed in the same buffer as the KLC proteins prior to the experiments. A total of 25 injections were performed with an interval of 300 seconds and a reference power of 13 µcal/second. The heat of dilution was controlled with binding isotherms from reference injections containing the peptide alone prior to fitting of the data. ITC data were analyzed using Origin software (MicroCal Inc) and were fit using a one-site binding model.

[2] = molecular target: T2, KLC1-N343S (Homo sapiens, UniProt Q07866, N343S); assay: ITC binding of JIP1 or ALC1 peptide to KLC1-N343S mutant; conditions: 25°C; for ΔS / N (binding stoichiometry) / Kd / ΔH: one-site model, N.B = no binding was observed; for N (binding stoichiometry) / Kd / ΔH: ± SD from fit; for ΔH: peptide 1–3 mM into chamber, 20 mM Bis-Tris pH 6.5, 500 mM NaCl, 0.5 mM TCEP
T2 construct: KLC1-TPR (residues 228–495, genbank: NP_005543); made in house; host or cells: E. coli BL21(DE3)-CodonPlus-RIL
Protocol: as §1, §2

[3] = molecular target: T3, KLC1-TPR (Homo sapiens, UniProt Q07866); assay: ITC binding of JIP1 or ALC1 peptide to KLC1-TPR; conditions: 25°C; for Kd / ΔH: 20 mM Bis-Tris pH 6.5, 500 mM NaCl, 0.5 mM TCEP; for Kd: Kd determined from Ka of one-site fit, Table 3; for Kd / N (binding stoichiometry) / ΔH: ± SD from fit; for ΔS / N (binding stoichiometry): pH 6.5, 500 mM NaCl; for ΔS / N (binding stoichiometry) / ΔH: one-site model; for ΔH: peptide 1–3 mM injected into 60–130 µM KLC1-TPR
T3 construct: KLC1-TPR (residues 228–495, genbank: NP_005543); made in house; host or cells: E. coli BL21(DE3)-CodonPlus-RIL
Protocol: as §1, §2

[4] = molecular target: T4, KLC2-TPR (Homo sapiens, UniProt Q9H0B6); assay: ITC binding of JIP1 peptide to KLC2-TPR; conditions: 25°C
T4 construct: KLC2-TPR (residues 217–480, genbank: NP_073733); made in house; host or cells: E. coli BL21(DE3)-CodonPlus-RIL
Protocol: as §1, §2

[5] = molecular target: T5, KLC1-N301A (Homo sapiens, UniProt Q07866, N301A); assay: ITC binding of ALC1 peptide to KLC1-N301A mutant; conditions: 25°C
T5 construct: KLC1-TPR (residues 228–495, genbank: NP_005543); made in house; host or cells: E. coli BL21(DE3)-CodonPlus-RIL
Protocol: as §2
Tryptophans at position 903 and 973 of ALC1 are crucial in binding to KLC1 as their mutation to alanines disrupt the interaction. There are two negatively charged aspartic acids and a polar serine residue adjacent to the tryptophans. Due to the similarities of the ALC1 residues to those of JIP1, the recognition of ALC1 by KLC1-TPR could also involve a “clamping” feature. However, such clamp must be different from the JIP1 binding polar patch as N343 is not required for ALC1 binding. Also, residues lining the ALC1 binding clamp should be conserved between KLC1-TPR and KLC2-TPR as ALC1 can interact with both isoforms. Possible candidates are N301 and N344 residues in the inner helices of TPR3 and TPR4 of KLC1-TPR. N301 extends toward the neighboring helix and interacts with N344, and is adjacent to K340 and Q341. As these residues are conserved in KLC2-TPR, N301 of KLC1-TPR was mutated into an alanine (KLC1-N301A) and tested its binding behavior towards ALC1 peptide. […] Together, N301 of KLC1-TPR plays an important role in binding of ALC1, probably by forming one of the ALC1 binding clamps.

[6] = molecular target: T3, KLC1-TPR; assay: ITC binding of cytosolic domain of ALC1 protein to KLC1-TPR
Protocol: as §1, §2
In order to elucidate a comprehensive view of ALC1 binding to KLC isoforms, the cytosolic domain of ALC1 was purified for the ITC binding studies. […] This would cause the modest increase in binding affinity to KLC1-TPR, compared to the ALC1 peptide. […]

[7] = pH 6.5, 500 mM NaCl, one-site model
[8] = pH 6.5, 500 mM NaCl, one-site model, ± SD from fit
[9] = peptide 1–3 mM into chamber, 20 mM Bis-Tris pH 6.5, 500 mM NaCl, 0.5 mM TCEP, one-site model, ± SD from fit
[10] = pH 6.5, 500 mM NaCl, N.B = no binding was observed

T1 sequence (Q9H0B6 217-480 S328N): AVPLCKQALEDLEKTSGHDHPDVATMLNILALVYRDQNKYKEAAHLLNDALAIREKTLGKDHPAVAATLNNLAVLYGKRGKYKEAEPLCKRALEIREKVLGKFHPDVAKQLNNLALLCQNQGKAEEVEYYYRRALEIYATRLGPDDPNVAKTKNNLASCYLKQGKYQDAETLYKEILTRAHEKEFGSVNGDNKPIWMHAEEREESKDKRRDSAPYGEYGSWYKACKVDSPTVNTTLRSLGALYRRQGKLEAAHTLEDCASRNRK
T2 sequence (Q07866 228-495 N343S): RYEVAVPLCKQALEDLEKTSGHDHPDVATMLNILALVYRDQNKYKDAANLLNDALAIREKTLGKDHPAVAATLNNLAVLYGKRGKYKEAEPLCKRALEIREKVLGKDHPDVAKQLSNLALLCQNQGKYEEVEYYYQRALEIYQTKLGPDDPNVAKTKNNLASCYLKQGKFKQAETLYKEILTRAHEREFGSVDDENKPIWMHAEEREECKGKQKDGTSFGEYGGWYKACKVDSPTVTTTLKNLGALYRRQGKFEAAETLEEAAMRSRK
T3 sequence (Q07866 228-495): as the sequence (Q07866 228-495 N343S) above, with S116N counted along it
T4 sequence (Q9H0B6 217-480): as the sequence (Q9H0B6 217-480 S328N) above, with N112S counted along it
T5 sequence (Q07866 228-495 N301A): as the sequence (Q07866 228-495 N343S) above, with N74A, S116N counted along it

With `CC[C@H](C)[C@H](NC(=O)[C@H](CC(=O)O)NC(=O)[C@H](CCC(=O)O)NC(=O)[C@@H](NC(=O)[C@@H]1CCCN1C(=O)[C@H](CS)NC(=O)[C@@H](NC(=O)[C@H](Cc1ccc(O)cc1)NC(=O)[C@H](CCC(=O)O)NC(C)=O)[C@@H](C)O)[C@@H](C)O)C(=O)N[C@@H](Cc1ccc(O)cc1)C(=O)N[C@@H](CC(C)C)C(=O)N[C@@H](CCC(=O)O)C(=O)O` [JIP1 peptide, Ac-EYTCPTEDIYLE-COOH] the “ability to bind (in words)” value ([1]; pH 6.5, 500 mM NaCl) was “gained binding capacity”, the ΔS [1, 7] was −31.8 eu and the “N (binding stoichiometry)” value [1, 8] was 1.18±0.01. The ΔH [1, 9] was -15.9 ± 1.6 kcal/mol, the “ability to bind (in words)” value ([2]; pH 6.5, 500 mM NaCl) was “lost the ability to bind” and the ΔS ([2]; pH 6.5, 500 mM NaCl) was “N.B”. For the same compound, the “N (binding stoichiometry)” value ([2]; pH 6.5, 500 mM NaCl) was “N.B”, the Kd ([2]; pH 6.5, 500 mM NaCl, Table 3) was “N.B” and the ΔH [2] was “N.B”. The Kd [3] was 9.4 ± 5.85 µM, the ΔS [3] was 17.9 eu and the “N (binding stoichiometry)” value [3] was 1.02±0.1. The “interaction with KLC1-TPR (in words)” value ([3]; pH 6.5, Figure S3A) was “specifically binds to KLC1-TPR”, the ΔH [3] was -1.52 ± 0.182 kcal/mol and the “interaction with KLC2-TPR (in words)” value ([4]; pH 6.5, 500 mM NaCl) was “no interaction was detected; also recorded: not to KLC2-TPR”. The Kd [4, 10] was “N.B”, the “N (binding stoichiometry)” value [4, 10] was “N.B” and the ΔS [4, 10] was “N.B”. For the same compound, the ΔH ([4]; peptide 1–3 mM into 60–130 µM KLC2-TPR, 20 mM Bis-Tris pH 6.5, 500 mM NaCl, 0.5 mM TCEP, N.B = no binding was observed) was “N.B”.

“Ac-EMDWDDSALT-OH [ALC1 peptide, Ac-EMDWDDSALT-COOH]” was tested, and the ΔS ([2]; pH 6.5, 500 mM NaCl) was 14.1 eu, the “N (binding stoichiometry)” value ([2]; pH 6.5, 500 mM NaCl) was 2.13 and the Kd ([2]; pH 6.5, 500 mM NaCl, Table 3, read-out: Kd) was 44.3 ± 7.5 µM. The “N (binding stoichiometry)” value ([2]; pH 6.5, 500 mM NaCl, listed as ALC1) was 2.13±0.15, the ΔH [2] was -1.7 ± 0.16 kcal/mol and the Kd [3] was 50.3 ± 3.1 µM. The ΔS [3] was 11.4 eu, the “N (binding stoichiometry)” value [3] was 1.85 and the “N (binding stoichiometry)” value ([3]; listed as ALC1) was 1.85±0.04. For the same compound, the ΔH [3] was -2.5 ± 0.07 kcal/mol, the “affinity compared with wild type KLC1 (in words)” value ([5]; pH 6.5, 500 mM NaCl) was “lower affinity than the wild type KLC1” and the ΔS [5, 7] was 12.9 eu. The “N (binding stoichiometry)” value [5, 8] was 1.02, the Kd ([5]; pH 6.5, 500 mM NaCl, one-site model, ± SD from fit, Table 3) was 179 ± 127 µM and the “N (binding stoichiometry)” value ([5]; pH 6.5, 500 mM NaCl, one-site model, ± SD from fit, listed as ALC1) was 1.02±0.69. It also gave a ΔH [5, 9] of -1.2 ± 0.99 kcal/mol.

“cytosolic domain of ALC1: purified cytosolic domain of ALC1, containing two KLC1-binding motifs (residues 893–896 and 964–967)” was tested, and the Kd ([6]; 25°C, 15 µM KLC1-TPR, 160 µM ALC1 protein, 30 mM HEPES 7.4, 200 mM NaCl, 0.5 mM TCEP, one-site model) was 2.4 µM, the binding stoichiometry ([6]; 25°C, 30 mM HEPES 7.4, 200 mM NaCl, 0.5 mM TCEP, one-site model) was 0.85 and the “affinity compared with the ALC1 peptide (in words)” value ([6]; KLC1-TPR) was “higher affinity than the ALC1 peptide”.
